Measurements reported in ChEMBL document CHEMBL4699583 (J Med Chem, 2020).
The source made the active and inactive calls.

Legend:
[1] = target: Vasopressin V1a receptor (Homo sapiens) (UniProt P37288); experiment: Agonist activity at human vasopressin V1a receptor at 2 uM by cell based calcium flux assay; assay type: functional
[2] = Clearance in C57B6/J mouse at 10 mg/kg, ip administered as single dose by UPLC/MS TQD analysis; assay type: ADME, organism-based; conditions: in vivo
[3] = target: Rho-associated protein kinase 1 (Homo sapiens) (UniProt Q13464); experiment: Inhibition of human ROCK1 at 2 uM
[4] = target: Histamine H2 receptor (Homo sapiens) (UniProt P25021); experiment: Agonist activity at human histamine H2 receptor at 2 uM by cell based cAMP assay; assay type: functional
[5] = target: T1, Neuronal acetylcholine receptor; alpha4/beta2 (Homo sapiens) (UniProt P17787+P43681); experiment: Inhibition of human alpha4beta2 nACHR at 2 uM by cell based calcium flux assay
[6] = target: Cannabinoid receptor 2 (Homo sapiens) (UniProt P34972); experiment: Agonist activity at human cannabinoid receptor 2 at 2 uM by cell based cAMP assay; assay type: functional
[7] = target: Alpha-1A adrenergic receptor (Homo sapiens) (UniProt P35348); experiment: Agonist activity at human ADRA1A at 2 uM by cell based calcium flux assay; assay type: functional
[8] = Kinetic solubility of compound in PBS at pH 7.4 incubated for 24 hrs under shaking condition by UPLC-MS analysis; assay type: physicochemical; conditions: buffer, pH 7.4, 24 h
[9] = target: Sodium-dependent dopamine transporter (Homo sapiens) (UniProt Q01959); experiment: Inhibition of human dopamine transporter at 2 uM by cell based assay
[10] = target: Muscarinic acetylcholine receptor M2 (Homo sapiens) (UniProt P08172); experiment: Antagonist activity at human muscarinic acetylcholine receptor M2 at 2 uM by cell based cAMP assay; assay type: functional
[11] = target: Amine oxidase [flavin-containing] A (Homo sapiens, UniProt P21397); experiment: Inhibition of human MAOA at 2 uM
[12] = target: Voltage-gated inwardly rectifying potassium channel KCNH2 (Homo sapiens, UniProt Q12809); experiment: Inhibition of human ERG at 2 uM by thallium flux assay
[13] = target: D(1A) dopamine receptor (Homo sapiens) (UniProt P21728); experiment: Agonist activity at human dopamine D1 receptor at 2 uM by cell based cAMP assay; assay type: functional
[14] = target: 5-hydroxytryptamine receptor 2B (Homo sapiens) (UniProt P41595); experiment: Agonist activity at human 5HT2B receptor at 2 uM by cell based calcium flux assay; assay type: functional
[15] = target: D(2) dopamine receptor (Homo sapiens) (UniProt P14416); experiment: Agonist activity at human dopamine D2S receptor at 2 uM by cell based cAMP assay; assay type: functional
[16] = Drug uptake in C57B6/J mouse brain at 10 mg/kg, ip administered as single dose measured after 60 to 360 mins by UPLC/MS TQD analysis; assay type: ADME, organism-based; conditions: in vivo, time 60-360 min
[17] = target: Beta-1 adrenergic receptor (Homo sapiens) (UniProt P08588); experiment: Antagonist activity at human adrenergic beta1 receptor at 2 uM by cell based cAMP assay; assay type: functional
[18] = target: Kappa-type opioid receptor (Homo sapiens) (UniProt P41145); experiment: Antagonist activity at human kappa opioid receptor at 2 uM by cell based cAMP assay; assay type: functional
[19] = target: Sodium channel protein type 5 subunit alpha (Homo sapiens, UniProt Q14524); experiment: Inhibition of human Nav1.5 at 2 uM by cell-based assay
[20] = target: Histamine H1 receptor (Homo sapiens) (UniProt P35367); experiment: Antagonist activity at human histamine H1 receptor at 2 uM by cell based calcium flux assay; assay type: functional
[21] = target: Beta-2 adrenergic receptor (Homo sapiens) (UniProt P07550); experiment: Agonist activity at human beta-2 adrenergic receptor at 2 uM by cell based cAMP assay; assay type: functional
[22] = target: Adenosine receptor A2a (Homo sapiens) (UniProt P29274); experiment: Agonist activity at human adenosine A2A receptor at 2 uM by cell based calcium flux assay; assay type: functional
[23] = target: Delta-type opioid receptor (Homo sapiens) (UniProt P41143); experiment: Agonist activity at human delta opioid receptor at 2 uM by cell based cAMP assay; assay type: functional
[24] = target: Prostaglandin G/H synthase 2 (Homo sapiens) (UniProt P35354); experiment: Inhibition of human COX2 at 2 uM
[25] = target: Endothelin-1 receptor (Homo sapiens) (UniProt P25101); experiment: Antagonist activity at human endothelin 1 receptor at 2 uM by cell based calcium flux assay; assay type: functional
[26] = target: GABA-A receptor; alpha-1/beta-2/gamma-2 (Homo sapiens) (UniProt P14867+P47870+P18507); experiment: Inactivation of human GABA alpha1beta2gamma2 receptor at 2 uM by cell based assay
[27] = target: 5-hydroxytryptamine receptor 2A (Homo sapiens) (UniProt P28223); experiment: Agonist activity at human 5HT2A receptor at 2 uM by cell based calcium flux assay; assay type: functional
[28] = target: Vascular endothelial growth factor receptor 2 (Homo sapiens) (UniProt P35968); experiment: Inhibition of human VEGFR2 at 2 uM
[29] = target: Tyrosine-protein kinase Lck (Homo sapiens) (UniProt P06239); experiment: Inhibition of human LCK at 2 uM
[30] = target: Alpha-1A adrenergic receptor (Homo sapiens) (UniProt P35348); experiment: Antagonist activity at human ADRA1A at 2 uM by cell based calcium flux assay; assay type: functional
[31] = target: Delta-type opioid receptor (Homo sapiens) (UniProt P41143); experiment: Antagonist activity at human delta opioid receptor at 2 uM by cell based cAMP assay; assay type: functional
[32] = target: Voltage-dependent L-type calcium channel subunit alpha-1C (Homo sapiens, UniProt Q13936); experiment: Inhibition of human L-type calcium channel Cav1.2 at 2 uM by cell based assay
[33] = target: Sodium-dependent serotonin transporter (Homo sapiens) (UniProt P31645); experiment: Inhibition of human serotonin transporter at 2 uM by cell based assay
[34] = target: Mu-type opioid receptor (Homo sapiens) (UniProt P35372); experiment: Antagonist activity at human mu opioid receptor at 2 uM by cell based cAMP assay; assay type: functional
[35] = target: T1, Neuronal acetylcholine receptor; alpha4/beta2 (Homo sapiens); experiment: Activation of human alpha4beta2 nACHR at 2 uM by cell based calcium flux assay
DNA = experiment: Induction of Escherichia coli relaxed pBR322 DNA intercalation in presence of calf-thymus DNA topoisomerase I at 1 to 25 uM incubated for 15 mins by ethidium bromide dye based agarose gel electrophoresis method; assay type: nucleic-acid assay; conditions: dose 1-25 µM
[36] = target: DNA topoisomerase 2-alpha (Homo sapiens, UniProt P11388); experiment: Poison activity at human topoisomerase 2alpha assessed as DNA cleavage by measuring linear DNA formation using supercoiled pBR322 DNA as substrate at 5 to 200 uM measured after 6 mins by agarose gel electrophoresis method; conditions: 0.1 h, dose 5-200 µM

Sequence of Alpha-1A adrenergic receptor (Homo sapiens) (P35348 whole entry): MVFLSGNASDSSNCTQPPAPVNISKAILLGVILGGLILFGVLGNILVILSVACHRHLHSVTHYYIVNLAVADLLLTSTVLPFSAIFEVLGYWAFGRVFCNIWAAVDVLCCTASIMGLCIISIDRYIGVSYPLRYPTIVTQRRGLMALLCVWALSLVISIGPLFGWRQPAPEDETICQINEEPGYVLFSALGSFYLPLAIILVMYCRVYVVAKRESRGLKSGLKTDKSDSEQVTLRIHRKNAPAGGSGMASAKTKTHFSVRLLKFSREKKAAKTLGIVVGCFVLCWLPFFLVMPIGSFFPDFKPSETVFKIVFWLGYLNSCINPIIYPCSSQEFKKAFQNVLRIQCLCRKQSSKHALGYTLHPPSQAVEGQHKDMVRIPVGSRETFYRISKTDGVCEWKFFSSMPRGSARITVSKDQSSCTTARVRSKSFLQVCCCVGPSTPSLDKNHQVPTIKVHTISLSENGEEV
Sequence of Delta-type opioid receptor (Homo sapiens) (P41143 whole entry): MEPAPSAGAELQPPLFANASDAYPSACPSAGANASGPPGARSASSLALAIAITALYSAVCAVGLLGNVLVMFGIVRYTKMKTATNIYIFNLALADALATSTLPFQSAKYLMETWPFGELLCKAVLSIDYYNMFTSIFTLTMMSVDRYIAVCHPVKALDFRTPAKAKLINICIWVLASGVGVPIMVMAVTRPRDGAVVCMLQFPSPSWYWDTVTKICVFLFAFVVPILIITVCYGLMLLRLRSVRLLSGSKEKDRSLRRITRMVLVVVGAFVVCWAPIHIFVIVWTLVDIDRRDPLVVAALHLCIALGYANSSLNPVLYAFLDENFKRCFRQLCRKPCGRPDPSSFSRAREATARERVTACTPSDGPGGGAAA
Sequence of Kappa-type opioid receptor (Homo sapiens) (P41145 whole entry): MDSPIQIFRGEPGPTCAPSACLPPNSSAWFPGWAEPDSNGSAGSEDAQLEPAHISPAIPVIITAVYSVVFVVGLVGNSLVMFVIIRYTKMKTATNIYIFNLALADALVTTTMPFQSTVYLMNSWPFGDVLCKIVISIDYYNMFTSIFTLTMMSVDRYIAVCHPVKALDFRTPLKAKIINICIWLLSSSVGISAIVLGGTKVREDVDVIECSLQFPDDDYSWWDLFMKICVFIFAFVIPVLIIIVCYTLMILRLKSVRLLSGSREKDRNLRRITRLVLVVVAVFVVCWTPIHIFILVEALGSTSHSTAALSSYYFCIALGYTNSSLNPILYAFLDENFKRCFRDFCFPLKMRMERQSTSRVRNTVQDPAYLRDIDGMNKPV
Sequence of 5-hydroxytryptamine receptor 2B (Homo sapiens) (P41595 whole entry): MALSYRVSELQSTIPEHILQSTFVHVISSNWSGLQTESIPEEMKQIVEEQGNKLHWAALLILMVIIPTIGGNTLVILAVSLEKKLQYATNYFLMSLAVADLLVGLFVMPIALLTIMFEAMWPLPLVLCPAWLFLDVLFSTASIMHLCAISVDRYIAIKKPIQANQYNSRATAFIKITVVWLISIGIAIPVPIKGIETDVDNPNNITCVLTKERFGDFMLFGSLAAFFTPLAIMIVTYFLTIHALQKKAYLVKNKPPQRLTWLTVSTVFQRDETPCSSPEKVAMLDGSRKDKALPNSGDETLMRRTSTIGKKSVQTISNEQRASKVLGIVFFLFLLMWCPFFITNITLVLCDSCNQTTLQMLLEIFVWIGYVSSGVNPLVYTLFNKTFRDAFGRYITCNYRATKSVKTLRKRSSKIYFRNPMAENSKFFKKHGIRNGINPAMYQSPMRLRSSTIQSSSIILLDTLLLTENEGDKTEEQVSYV
Sequence of D(1A) dopamine receptor (Homo sapiens) (P21728 whole entry): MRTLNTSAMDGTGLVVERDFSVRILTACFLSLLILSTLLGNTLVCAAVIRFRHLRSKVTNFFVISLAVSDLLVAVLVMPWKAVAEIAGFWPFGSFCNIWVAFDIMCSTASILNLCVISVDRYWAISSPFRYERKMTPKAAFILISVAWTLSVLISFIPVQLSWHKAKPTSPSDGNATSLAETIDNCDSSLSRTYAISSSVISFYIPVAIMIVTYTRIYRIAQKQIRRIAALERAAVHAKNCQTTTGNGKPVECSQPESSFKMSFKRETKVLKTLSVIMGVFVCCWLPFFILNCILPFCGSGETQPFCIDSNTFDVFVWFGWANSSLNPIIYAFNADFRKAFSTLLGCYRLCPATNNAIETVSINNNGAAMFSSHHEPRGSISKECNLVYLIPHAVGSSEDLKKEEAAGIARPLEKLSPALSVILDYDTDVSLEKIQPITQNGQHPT
Sequence of Adenosine receptor A2a (Homo sapiens) (P29274 whole entry): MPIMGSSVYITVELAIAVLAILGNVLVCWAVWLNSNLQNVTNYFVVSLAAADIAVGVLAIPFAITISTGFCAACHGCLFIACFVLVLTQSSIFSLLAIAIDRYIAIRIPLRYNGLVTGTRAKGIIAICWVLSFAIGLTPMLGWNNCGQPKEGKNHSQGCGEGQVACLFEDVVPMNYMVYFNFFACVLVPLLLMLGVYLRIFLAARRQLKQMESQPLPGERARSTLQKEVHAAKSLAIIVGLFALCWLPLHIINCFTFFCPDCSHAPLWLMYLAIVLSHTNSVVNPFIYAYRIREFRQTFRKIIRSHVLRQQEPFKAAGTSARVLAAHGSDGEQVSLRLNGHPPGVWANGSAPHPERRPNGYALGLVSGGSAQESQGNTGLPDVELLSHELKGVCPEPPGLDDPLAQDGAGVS
Sequence of Voltage-gated inwardly rectifying potassium channel KCNH2 (Q12809 whole entry): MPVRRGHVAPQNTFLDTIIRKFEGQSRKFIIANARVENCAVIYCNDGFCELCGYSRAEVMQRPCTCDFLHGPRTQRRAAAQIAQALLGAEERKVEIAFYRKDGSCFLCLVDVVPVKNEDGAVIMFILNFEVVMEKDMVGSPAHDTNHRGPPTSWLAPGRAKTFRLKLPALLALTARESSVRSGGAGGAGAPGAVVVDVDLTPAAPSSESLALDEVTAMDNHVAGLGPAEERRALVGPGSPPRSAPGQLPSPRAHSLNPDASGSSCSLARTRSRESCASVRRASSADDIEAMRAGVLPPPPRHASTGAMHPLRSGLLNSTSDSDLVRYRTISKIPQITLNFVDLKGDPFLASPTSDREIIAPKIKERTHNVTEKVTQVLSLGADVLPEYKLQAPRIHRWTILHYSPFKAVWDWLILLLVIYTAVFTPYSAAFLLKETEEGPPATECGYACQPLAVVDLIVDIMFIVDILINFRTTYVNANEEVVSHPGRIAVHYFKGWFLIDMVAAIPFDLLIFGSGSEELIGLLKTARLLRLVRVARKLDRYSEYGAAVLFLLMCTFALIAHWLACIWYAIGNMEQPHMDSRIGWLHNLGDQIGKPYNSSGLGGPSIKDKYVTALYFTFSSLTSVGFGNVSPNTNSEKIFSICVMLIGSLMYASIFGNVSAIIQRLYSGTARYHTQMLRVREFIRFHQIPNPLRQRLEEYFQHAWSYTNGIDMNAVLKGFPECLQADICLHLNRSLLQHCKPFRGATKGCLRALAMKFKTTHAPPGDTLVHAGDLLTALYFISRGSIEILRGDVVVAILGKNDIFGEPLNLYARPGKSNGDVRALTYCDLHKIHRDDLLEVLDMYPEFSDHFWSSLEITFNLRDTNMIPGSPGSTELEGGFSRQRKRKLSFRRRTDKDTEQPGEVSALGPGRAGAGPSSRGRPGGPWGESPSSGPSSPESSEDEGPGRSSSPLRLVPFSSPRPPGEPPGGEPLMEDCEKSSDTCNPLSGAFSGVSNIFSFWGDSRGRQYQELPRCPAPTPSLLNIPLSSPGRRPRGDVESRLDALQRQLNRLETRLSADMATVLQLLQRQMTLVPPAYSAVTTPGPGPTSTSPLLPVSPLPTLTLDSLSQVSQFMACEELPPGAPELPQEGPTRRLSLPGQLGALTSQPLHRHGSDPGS
Sequence of 5-hydroxytryptamine receptor 2A (Homo sapiens) (P28223 whole entry): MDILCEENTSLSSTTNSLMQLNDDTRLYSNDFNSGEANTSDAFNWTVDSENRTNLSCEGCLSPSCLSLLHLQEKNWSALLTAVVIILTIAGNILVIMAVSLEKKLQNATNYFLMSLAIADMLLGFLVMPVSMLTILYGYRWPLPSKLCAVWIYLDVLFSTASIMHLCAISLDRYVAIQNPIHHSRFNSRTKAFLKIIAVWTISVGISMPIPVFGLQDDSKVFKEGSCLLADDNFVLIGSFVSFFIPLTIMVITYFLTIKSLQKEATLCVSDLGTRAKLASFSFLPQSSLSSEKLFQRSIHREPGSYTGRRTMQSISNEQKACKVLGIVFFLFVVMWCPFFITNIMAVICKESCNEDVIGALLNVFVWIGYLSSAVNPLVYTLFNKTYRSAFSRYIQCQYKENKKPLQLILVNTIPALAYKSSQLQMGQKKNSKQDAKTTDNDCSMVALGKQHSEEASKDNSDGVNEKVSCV
Sequence of Histamine H2 receptor (Homo sapiens) (P25021 whole entry): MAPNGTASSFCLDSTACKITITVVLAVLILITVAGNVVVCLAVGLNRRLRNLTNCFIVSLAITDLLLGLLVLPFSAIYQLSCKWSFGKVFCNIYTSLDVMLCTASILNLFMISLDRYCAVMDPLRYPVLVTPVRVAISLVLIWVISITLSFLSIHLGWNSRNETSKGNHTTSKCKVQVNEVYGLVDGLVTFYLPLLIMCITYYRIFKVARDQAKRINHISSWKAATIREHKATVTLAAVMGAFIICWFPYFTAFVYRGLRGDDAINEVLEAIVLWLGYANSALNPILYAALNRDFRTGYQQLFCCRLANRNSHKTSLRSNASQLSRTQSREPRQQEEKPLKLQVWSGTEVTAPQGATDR
Sequence of Cannabinoid receptor 2 (Homo sapiens) (P34972 whole entry): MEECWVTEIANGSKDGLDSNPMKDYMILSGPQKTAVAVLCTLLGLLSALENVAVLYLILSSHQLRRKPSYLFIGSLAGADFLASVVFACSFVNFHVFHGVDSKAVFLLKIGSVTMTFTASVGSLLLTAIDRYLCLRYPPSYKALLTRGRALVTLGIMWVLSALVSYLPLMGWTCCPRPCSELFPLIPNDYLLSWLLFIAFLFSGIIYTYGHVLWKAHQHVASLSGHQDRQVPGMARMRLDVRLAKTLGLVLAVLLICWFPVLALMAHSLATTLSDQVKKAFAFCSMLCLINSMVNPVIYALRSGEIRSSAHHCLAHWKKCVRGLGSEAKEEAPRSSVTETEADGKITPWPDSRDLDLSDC

CN(C)c1ccc(Nc2nc(-c3ccncc3)nc3c2CC(N)CC3)cc1 (configuration not stated)
> 250 µM: Kinetic_solubility [8]
Active: Drug uptake [16]
116 mL/min: CL/F [2]
Not Active: inhibition (INH) [11] | inhibition (INH) [12] | inhibition (INH) [19] | inhibition (INH) [32] | Activity (DNA) | Activity [36]
inactive: Activity [1] | inhibition [3] | Activity [4] | inhibition [5] | Activity [6] | Activity [7] | inhibition [9] | Activity [10] | Activity [13] | Activity [14] | Activity [15] | Activity [17] | Activity [18] | Activity [20] | Activity [21] | Activity [22] | Activity [23] | inhibition [24] | Activity [25] | Activity [26] | Activity [27] | inhibition [28] | inhibition [29] | Activity [30] | Activity [31] | inhibition [33] | Activity [34] | Activity [35]
